From patent publication US9394297B2, “Amides as pim inhibitors” (AMGEN INC., priority 2012, dated 2016) come the findings set out here.

In assay [1] the target is Pim-1 (Homo sapiens (Human), UniProt P11309). The assay is described as follows: Pim-Mn enzyme assay (HTRF, 384-well), Pim-1. To be noted: Pim-1 enzyme 5 pM, ATP 1.5 μM, BAD (S112) 0.5 μM, HTRF, 22-point curve; read-out: Pim-1-Mn IC50 IP. In kind it is biochemical. On the technique in general: TR-FRET usually uses a lanthanide donor and a delayed reading to cut background.

Assay [2] addresses Pim-2 (Homo sapiens (Human), UniProt Q9P1W9). The assay is described as follows: Pim-Mn enzyme assay (HTRF, 384-well), Pim-2. In kind it is biochemical. To be noted: Pim-2 enzyme 0.5 pM, ATP 1.5 μM, BAD (S112) 0.5 μM, HTRF, 22-point curve; read-out: Pim-2-Mn IC50 IP.

Sequence of Pim-1 (P11309 whole entry): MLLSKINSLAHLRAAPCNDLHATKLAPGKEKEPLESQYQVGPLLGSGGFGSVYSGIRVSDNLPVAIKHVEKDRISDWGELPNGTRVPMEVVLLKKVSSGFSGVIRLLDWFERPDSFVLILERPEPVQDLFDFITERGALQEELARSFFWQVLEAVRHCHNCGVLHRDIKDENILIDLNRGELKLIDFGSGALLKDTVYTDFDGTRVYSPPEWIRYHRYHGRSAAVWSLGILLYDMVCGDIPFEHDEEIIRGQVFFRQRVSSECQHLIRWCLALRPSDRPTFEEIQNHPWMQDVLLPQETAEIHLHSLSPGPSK
Sequence of Pim-2 (Q9P1W9 whole entry): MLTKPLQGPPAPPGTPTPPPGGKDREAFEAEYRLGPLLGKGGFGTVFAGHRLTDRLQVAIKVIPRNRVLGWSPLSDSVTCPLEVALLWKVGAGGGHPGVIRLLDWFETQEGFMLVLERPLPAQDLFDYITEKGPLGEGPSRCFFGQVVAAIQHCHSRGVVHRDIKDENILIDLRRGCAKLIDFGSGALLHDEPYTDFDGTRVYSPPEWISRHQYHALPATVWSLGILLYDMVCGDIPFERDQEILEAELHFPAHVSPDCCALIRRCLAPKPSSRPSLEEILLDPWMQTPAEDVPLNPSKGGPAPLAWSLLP

As a reminder, the IC50 is the concentration that inhibits the measured activity by half. For the molecule `Cc1nc2cccc(-c3cc4c([nH]3)CCNC4=O)c2nc1OCCC(C)(C)N` [Example 269, 2-(3-(3-amino-3-methylbutoxy)-2-methyl-5-quinoxalinyl)-1,5,6,7-tetrahydro-4H-pyrrolo[3,2-c]pyridin-4-one], the figures for the half-inhibitory concentration (IC50) in assay [1] and in assay [2] were 44.5 nM and 65.3 nM, respectively.

In the case of `Cc1nc2cccc(-c3[nH]c4c(c3Cl)C(=O)N[C@@H]4C)c2nc1NC1(C)CC1` [Example 454, (R)-3-chloro-6-methyl-2-(2-methyl-3-((1-methylcyclopropyl)amino)quinoxalin-5-yl)-5,6-dihydropyrrolo[3,4-b]pyrrol-4(1H)-one], the results for the IC50 in assay [1] and in assay [2] were 0.255 nM and 0.599 nM, respectively.

On to `Cc1nc2cccc(-c3cc4c([nH]3)CCNC4=O)c2nc1NC(C)C(F)(F)F` (stereo in doubt) [Example 256, (R)-2-(2-methyl-3-((1,1,1-trifluoropropan-2-yl)amino)quinoxalin-5-yl)-6,7-dihydro-1H-pyrrolo[3,2-c]pyridin-4(5H)-one], for which the IC50 in assay [1] was determined as 4.97 nM; in assay [2], 4.32 nM.

With `Cc1nc2cccc(-c3cc4c(=O)[nH]cnc4[nH]3)c2nc1N` [Example 262, 6-(3-amino-2-methylquinoxalin-5-yl)-3H-pyrrolo[2,3-d]pyrimidin-4(7H)-one], the values for the IC50 in assay [1] and in assay [2] were 18.9 nM and 21 nM, respectively.

`Cc1nc2cccc(-c3cc4c([nH]3)[C@@H](C)NC4=O)c2nc1N[C@H]1CCC[C@@H](NS(C)(=O)=O)C1` [Example 489, N-((1R,3S)-3-((3-methyl-8-((6R)-6-methyl-4-oxo-1,4,5,6-tetrahydropyrrolo[3,4-b]pyrrol-2-yl)-2-quinoxalinyl)amino)cyclohexyl)methanesulfonamide]: the 50% inhibitory concentration (IC50) in assay [1] came to 4 nM; in assay [2] it was 2 nM.

In the case of `CCn1c(NC2(C)CC2)nc2c(-c3cc4c([nH]3)[C@@H](C)NC4=O)c(F)ccc2c1=O` [Example 513, (R)-3-Ethyl-7-fluoro-8-(6-methyl-4-oxo-1,4,5,6-tetrahydropyrrolo[3,4-b]pyrrol-2-yl)-2-((1-methylcyclopropyl)amino)quinazolin-4(3H)-one], the concentration for half-maximal inhibition (IC50) in assay [1] turned out to be 0.013 nM; in assay [2], 0.0378 nM.

In the case of `Cc1nc2cccc(-c3cc4c([nH]3)[C@@H](C)NC4=O)c2nc1N[C@H]1CCC[C@@H](NC(=O)[C@H](N)CO)C1` [Example 497, N-((1R,3S)-3-((3-methyl-8-((6R)-6-methyl-4-oxo-1,4,5,6-tetrahydropyrrolo[3,4-b]pyrrol-2-yl)-2-quinoxalinyl)amino)cyclohexyl)-D-serinamide], the results for the 50% inhibitory concentration (IC50) in assay [1] and in assay [2] were 0.28 nM and 0.16 nM, respectively.

For the molecule `C[C@H]1NC(=O)c2cc(-c3cccc4c(=O)n(CCCO)c(NC(C)(C)C)nc34)[nH]c21` [Example 500, 2-(tert-butylamino)-3-(3-hydroxypropyl)-8-((6R)-6-methyl-4-oxo-1,4,5,6-tetrahydropyrrolo[3,4-b]pyrrol-2-yl)-4(3H)-quinazolinone], the concentration for half-maximal inhibition (IC50) in assay [1] stood at 0.12 nM; in assay [2] it was 0.11 nM.

Take `Cc1nc2cccc(-c3cc4c([nH]3)CCNC4=O)c2nc1N[C@H]1CC[C@H](O)CC1` [Example 206, 2-(3-((trans-4-hydroxycyclohexyl)amino)-2-methylquinoxalin-5-yl)-6,7-dihydro-1H-pyrrolo[3,2-c]pyridin-4(5H)-one]: the IC50 was 2.7 nM in assay [1] and 4 nM in assay [2].

As to `Cc1nc2cccc(-c3cc4c([nH]3)CCNC4=O)c2nc1N[C@@H]1CCCN(C(=O)OC(C)(C)C)C1` [Example 52, tert-butyl (3R)-3-((3-methyl-8-(4-oxo-4,5,6,7-tetrahydro-1H-pyrrolo[3,2-c]pyridin-2-yl)-2-quinoxalinyl)amino)-1-piperidinecarboxylate], the IC50 was 149 nM in assay [1] and 403 nM in assay [2].

`CC#CCC1CNC(=O)c2cc(-c3cccc4nc(C)c(F)nc34)[nH]c21` (racemic) [Example 280, rac-7-(2-butyn-1-yl)-2-(3-fluoro-2-methyl-5-quinoxalinyl)-1,5,6,7-tetrahydro-4H-pyrrolo[3,2-c]pyridin-4-one]: the IC50 in assay [1] turned out to be 838 nM; in assay [2] it was 706 nM.

Regarding `Cn1c(NC(C)(C)C)nc2c(-c3cc4c([nH]3)[C@@H](CCN)NC4=O)cccc2c1=O` [Example 504, (R)-8-(6-(2-aminoethyl)-4-oxo-1,4,5,6-tetrahydropyrrolo[3,4-b]pyrrol-2-yl)-2-(tert-butylamino)-3-methylquinazolin-4(3H)-one], the IC50 in assay [1] worked out at 0.04 nM; in assay [2] it was 0.02 nM.

Regarding `Cc1nc2cccc(-c3cc4c([nH]3)CCNC4=O)c2nc1N[C@H]1CC[C@H]1N` (racemic) [Example 54, rac-2-(3-((cis-2-aminocyclobutyl)amino)-2-methyl-5-quinoxalinyl)-1,5,6,7-tetrahydro-4H-pyrrolo[3,2-c]pyridin-4-one], the concentration for half-maximal inhibition (IC50) in assay [1] is 1.3 nM; in assay [2], 2.9 nM.

For the molecule `Cc1nc2cccc(-c3cc4c([nH]3)CCNC4=O)c2nc1OC1CCC1` [Example 151, 2-(3-cyclobutoxy-2-methylquinoxalin-5-yl)-6,7-dihydro-1H-pyrrolo[3,2-c]pyridin-4(5H)-one], the IC50 in assay [1] was found to be 18.2 nM; in assay [2], 12.3 nM.

With `Cc1nc2cccc(-c3cc4c([nH]3)CCNC4=O)c2nc1NC(C)(C)CS(C)(=O)=O` [Example 274, 2-(3-((1,1-dimethyl-2-(methylsulfonyl)ethyl)amino)-2-methyl-5-quinoxalinyl)-1,5,6,7-tetrahydro-4H-pyrrolo[3,2-c]pyridin-4-one], the half-maximal inhibitory concentration (IC50) came to 44.4 nM in assay [1] and 39.5 nM in assay [2].

In the case of `CSc1nc2c(-c3cc4c([nH]3)CCNC4=O)cccc2c(=O)n1C` [Example 265, 3-methyl-2-(methylthio)-8-(4-oxo-4,5,6,7-tetrahydro-1H-pyrrolo[3,2-c]pyridin-2-yl)quinazolin-4(3H)-one], the IC50 in assay [1] is 25.2 nM; in assay [2], 11.9 nM.

For the molecule `C[C@H]1NC(=O)c2cc(-c3cccc4c(=O)n(C5CC5)c(NC5(C)CCC5)nc34)[nH]c21` [Example 496, (R)-3-cyclopropyl-8-(6-methyl-4-oxo-1,4,5,6-tetrahydropyrrolo[3,4-b]pyrrol-2-yl)-2-((1-methylcyclobutyl)amino)quinazolin-4(3H)-one], the half-maximal inhibitory concentration (IC50) in assay [1] and in assay [2] was 0.2 nM throughout.

`Cc1nc2cccc(-c3cc4c([nH]3)CCNC4=O)c2nc1N[C@@H]1CCNC1` [Example 61, 2-(2-methyl-3-((3R)-3-pyrrolidinylamino)-5-quinoxalinyl)-1,5,6,7-tetrahydro-4H-pyrrolo[3,2-c]pyridin-4-one]: the IC50 in assay [1] came to 6.1 nM; in assay [2], 26.4 nM.

With `C[C@H]1NC(=O)c2cc(-c3cccc4c(N)nc(NC(C)(C)C)nc34)[nH]c21` [Example 484, (6R)-2-(4-amino-2-(tert-butylamino)-8-quinazolinyl)-6-methyl-5,6-dihydropyrrolo[3,4-b]pyrrol-4(1H)-one], the IC50 turned out to be 3.98 nM in assay [1] and 7.66 nM in assay [2].

For `Cc1nc2cccc(-c3cc4c([nH]3)C[C@H](C)NC4=O)c2nc1NC(C)(C)C` [Example 288, (6S)-2-(3-(tert-butylamino)-2-methyl-5-quinoxalinyl)-6-methyl-1,5,6,7-tetrahydro-4H-pyrrolo[3,2-c]pyridin-4-one], the IC50 was 5.85 nM in assay [1] and 3.96 nM in assay [2].
